Reference: patent US12594319B2, “Pharmaceutical development” (HELPERBY THERAPEUTICS LIMITED, priority 2019, dated 2026)
Values joined by “and” are separate entries in the source; they are usually repeats but may differ in a detail not shown here. Equal entries are not always repeated.

How the values were obtained:
[1] = test system: sensitive micro-organisms; conditions: cited from earlier work; for Potency: general value of the art
[2] = buffered aqueous system
Method: A two component buffer system consisting of acetate and phosphate (5 mM acetate and 5 mM phosphate) was used to cover a pH range of about 4.5 to 7.5. After complete dissolution of the solid, the pH was adjusted to the desired pH value using hydrochloric acid.

[3] = Solubility screening in organic solvent system (tert-butanol/water)
Method: Substances were dissolved in an appropriate volume to justify the use of an organic solvent based system (reduction of the fill volume per vial by a factor of 4, ˜5 mL fill volume in organic solvent based systems). Samples were tested for stability of the APIs in solution when stored for 24 h at 2 to 8° C. and 25° C. […] The chromatographic conditions were the same as set out above for Example 1A.

[4] = Determination of free colistin (turbidity) according to European Pharmacopeia 9.5; type: physicochemical; conditions: free colistin assay
Method: Determination of free colistin was performed according to European Pharmacopeia 9.5 (July 2017:0319).
1.0 g of hydrazine sulfate was dissolved in purified water, diluted to 100.0 mL with the same solvent and allowed to stand for 4-6 h.
2.5 g of hexamethylene tetramine was dissolved in 25.0 mL purified water in a 100 mL glass-stoppered volumetric flask.
25.0 mL hydrazine sulfate solution was added to the hexamethylene tetramine solution in the volumetric flask, mixed and allowed to stand for 24 h.
15.0 mL of the primary opalescent suspension was diluted to 1000.0 mL with purified water. This suspension was freshly prepared and stored for a maximum of 24 h.
Reference suspensions according to Table 6 were prepared for calibration of the turbidity meter.
One lyophilisate containing 240 mg CMS was dissolved in 10 mL purified water. CMS BDS was analyzed by dissolving 80 mg of CMS BDS in 3 mL purified water. After complete dissolution, 0.1 mL […] silicotungstic acid was added to 3 mL of the test sample (either reconstituted lyophilisate or dissolved BDS). The turbidity of the sample was recorded after 10 s-20 s.
Determination of free colistin was performed according to European Pharmacopeia 9.5 (July 2017:0319). The hydrazine sulfate solution, hexamethylene tetramine solution, primary opalescent suspension, standard of opalescence, and reference suspensions were prepared as in Example 2. […]

[5] = aqueous solutions; Wallace et al. 2010; cited from earlier work
[6] = RP-HPLC for related substances of zidovudine (Ph. Eur. 9.5) after lyophilisation; type: physicochemical; conditions: aqueous lyo solution
Method: RP-HPLC chromatography for quantity and purity of zidovudine was performed according to monograph Ph. Eur. 9.5 (January 2017:1059). The following chromatographic conditions were used for the analysis.
• XTerra RP18 VanGuard cartridge, 3.9×5 mm, 5 μm Mobile phase A 2 g/L ammonium acetate, pH 6.8 Mobile phase B Acetonitrile
Mobile phase A was prepared by dissolving 2 g ammonium acetate in 800 mL of purified water, pH was adjusted to 6.8 with acetic acid. The solution was made up to 1 L with purified water.
Diluent was prepared by mixing 76 mL mobile phase A with 4 mL of ACN and 20 mL methanol.
Reference solution A: 2 mg of impurity C and 2 mg of impurity B were dissolved in 50 mL diluent. 1 mL of this solution was diluted with 19 mL diluent.

colistin sulfate
Potency [1]: around 20,500 IU/mg

polymyxin B
International Units equivalent to 1 mg ([1]; generally accepted in the art): approximately 10,000 IU

colistimethate sodium [CMS]
Effect on pH of the solution / buffer capacity [2]: strong buffer capacity at neutral to slightly basic pH values
Potency [1]: around 12,500 IU/mg
Solubility in TBA/water, all TBA concentrations [3]: soluble in all TBA concentrations
Dissolution time in TBA/water ([3]; 20% to 60% (w/w) TBA, 5 mL): within a few minutes
Acceptance criteria/not more turbid than standard of opalescence II ([4]; Table 8 (Example 2)): yes
Turbidity ([4]; Table 8, organic solvent system lyophilisation (Example 2)): 5.5 NTU
Concentration in aqueous solution above which CMS is stable against hydrolysis due to the formation of micelles [5]: above 3.5 mM and ~5.7 mg/mL

Cc1cn([C@H]2C[C@H](N=[N+]=[N-])[C@@H](CO)O2)c(=O)[nH]c1=O [Zidovudine]
Stability of zidovudine during the lyophilisation process [6]: stable during the lyophilisation process
